The nature of data set [1]: in vitro.
In the next data set the test system is HIV-1. Description: Example 2 anti-HIV bioassay of C-28 ethylene glycol bevirimat analogs. The format is cell-based. Particulars: Example 2 compounds (Scheme B).
Data set [2] is described as follows: Solubility (stated in words).
A short description of data set [3]: Example 2 bioassay cytotoxicity (CC50). The settings on record: Example 2 compounds (Scheme B).
Data set [4] has as its system mock-infected MT-2 cell. As to the kind of experiment: Cytotoxicity in mock-infected MT-2 cells (XTT). Particulars: concentration that inhibits mock-infected MT-2 cell growth by 50%.
Protocol: (§1) HIV-1IIIB Replication Inhibition Assay in MT-2 Lymphocytes. The evaluation of HIV-1 inhibition was carried out as follows. […] Control wells containing virus and cells only (no drug) and cells only (no virus or drug) were also prepared. A second identical set of samples were added to cells under the same conditions without virus (mock infection) for cytotoxicity determinations (CC50 defined below). […] On day 4 PI, the assay was terminated and culture supernatants were harvested for p24 antigen ELISA analysis. The compound cytotoxicity was determined by XTT using the mock-infected sample wells.
Data set [5] can be described thus: Protein binding affinity (stated in words, Example 2). The format is in vitro ADME. Particulars: Example 2 compounds (Scheme B).
The test system of a further data set is HIV-1IIIB. Description: HIV-1IIIB replication inhibition assay in MT-2 lymphocytes (p24 antigen ELISA). The format is cell-based. The settings on record: HIV-1IIIB infected MT-2 cell lines, concentration that inhibits HIV-1IIIB replication by 50%, NS: no suppression at concentrations below the CC50. For orientation: An ELISA detects its analyte on a solid surface through an enzyme-linked reagent.

Another data set concerns mock-infected MT-4 cell. Description: Cytotoxicity in mock-infected MT-4 cells. The format is cell-based. The settings on record: concentration that inhibits mock-infected MT-4 cell growth by 50%; read-out: CC50.
The test system of another data set is HIV-1NL4-3. As to the kind of experiment: HIV-1NL4-3 replication inhibition assay in MT-4 lymphocytes (p24 antigen ELISA). The format is cell-based. Particulars: HIV-1NL4-3 infected MT-4 cell lines; concentration that inhibits HIV-1NL4-3 replication by 50%. An excerpt:
HIV-1NL4-3 Replication Inhibition Assay in MT-4 Lymphocytes. A previously described HIV-1 infectivity assay was used.^28,33 A 96-well microtiter plate was used to set up the HIV-1NL4-3 replication screening assay. NL4-3 variants at a multiplicity of infection (MOI) of 0.01 were used to infect MT4 cells. Culture supernatants were collected on day 4 post-infection for the p24 antigen capture using an ELISA kit from ZeptoMetrix Corporation (Buffalo, N.Y.).

The subject of data set [6] is mock-infected MT-2 cell.
Protocol: as §1
For data set [7] the following is noted: human, microsomes.
Data set [8] can be described thus: in vitro. The settings on record: human, mock-infected MT-2 cells.
Protocol: as §1
A short description of data set [9]: In vitro metabolic stability in pooled human liver microsomes. Particulars: 3 μM, 0.2 mg/mL human liver microsome, NADPH. (Liver microsomes are a subcellular fraction often used to study metabolism.)
Where [10] appears, read: Example 2 compounds (Scheme B), C-28 ethylene glycol side chains on bevirimat.
Setting [11] is: Human immunodeficiency virus 1, MT2.

Read-outs that look alike come from different tables or passages of the source. Where only a bound is given, the exact number is not on record here.

Protocol for HIV-1IIIB: as §1

Broadly, the EC50 is the concentration that produces a half-maximal response. In the case of `C=C(C)[C@@H]1CC[C@]2(C(=O)O)CC[C@]3(C)[C@H](CC[C@@H]4[C@@]5(C)CC[C@H](OC(=O)CC(C)(C)C(=O)O)C(C)(C)[C@@H]5CC[C@]43C)[C@@H]12` [Compound 2, bevirimat, reference compound], in “in vitro [1]”, the CC50 was 16.3 µM. The same molecule returned an EC50 with HIV-1 (Human immunodeficiency virus 1) of 0.063 µM.

With `C=C(COCCN1CCOCC1)[C@@H]1CC[C@]2(C(=O)NCCCCCCCC(=O)O)CC[C@]3(C)[C@H](CC[C@@H]4[C@@]5(C)CC[C@H](O)C(C)(C)[C@@H]5CC[C@]43C)[C@@H]12` [Compound 20, N-[3β-Hydroxy-30-(2′-morpholinoethoxy)-lup-20(29)-en-28-oyl]-8-aminooctanoic acid], the EC50 in the data set on HIV-1 stood at 0.17 µM; with HIV-1IIIB, 1.8 µM. Also, the entries for the “solubility (in words)” value in data set [2] (Example 1 compounds) and in data set [2] (setting [10]) were “increase in the derivative's solubility” and “increased solubility”, respectively. Besides, the figures for the CC50 (in data set [3]; with mock-infected MT-2 cell [4]) were 12.4 µM and 24.8 µM, respectively. Further, the “protein binding affinity (in words)” value in [5] was “decreased protein binding affinity”.

In the case of `C=C(COCCN1CCOCC1)[C@@H]1CC[C@]2(C(=O)NCCCCCCCC(=O)NC)CC[C@]3(C)[C@H](CC[C@@H]4[C@@]5(C)CC[C@H](O)C(C)(C)[C@@H]5CC[C@]43C)[C@@H]12` [Compound 21], the CC50 is > 10 µM with mock-infected MT-4 cell, 12 µM in data set [3] and 22.3 µM in the data set with mock-infected MT-2 cell [4]. In addition, the EC50 in the data set with HIV-1 was determined as 0.046 µM; with HIV-1NL4-3 it was 0.09 µM; in the data set on HIV-1IIIB, 0.09 µM. Besides, the “solubility (in words)” value in data set [2] (Example 1 compounds) is given as “good solubility”; in [2] (setting [10]) it was “increased solubility”. For the same molecule, the “protein binding affinity (in words)” value in data set [5] was “decreased protein binding affinity”.

For `C=C(C)[C@@H]1CC[C@]2(C(=O)NCCCCCCCC(=O)O)CC[C@]3(C)[C@H](CC[C@@H]4[C@@]5(C)CC[C@H](O)C(C)(C)[C@@H]5CC[C@]43C)[C@@H]12` [Compound 23, N-[3β-Hydroxy-lup-20(29)-en-28-oyl]-8-aminooctanoic acid], in the data set on mock-infected MT-2 cell [6], the CC50 turned out to be 33.4 µM. Also, the “half life (t1/2, time to lose 50% of parent)” value in data set [7] is on record as “around 35 min”. In the data set on HIV-1IIIB, the EC50 is 3.3 µM.

The term melting point denotes the temperature, or range, at which the solid turns liquid. In turn, `C=C(CBr)[C@@H]1CC[C@]2(C(=O)NC(CC(C)C)C(=O)O)CC[C@]3(C)[C@H](CC[C@@H]4[C@@]5(C)CC[C@H](OC(=O)CC(C)(C)C(=O)O)C(C)(C)[C@@H]5CC[C@]43C)[C@@H]12` (stereo partly drawn) [Compound 30, N-[3β-O-(3′,3′-Dimethylsuccinyl)-30-bromo-lup-20(29)-en-28-oyl]-leucine] registered a melting point of 105 to 107 °C. Moreover, the CC50 at 4 day in “in vitro [8]” came out at 33.2 µM. Also, the response with HIV-1IIIB (setting [11]) was half-maximal at 0.011 µM (EC50).

Molecule `C=C(C)[C@@H]1CC[C@]2(C(=O)N[C@@H](CC(C)C)C(=O)O)CC[C@]3(C)[C@H](CC[C@@H]4[C@@]5(C)CC[C@H](NC(=O)CC(C)(C)C(=O)O)C(C)(C)[C@@H]5CC[C@]43C)[C@@H]12` [Compound 36, N′-[3β-(3′,3′-Dimethylsuccinyl)-lup-20(29)-en-28-oyl]-leucine] had a melting point of 248 to 250 °C. Besides, the CC50 with mock-infected MT-2 cell [4] amounted to 35.9 µM. In the data set on HIV-1IIIB (setting [11]), the midpoint of the response, the EC50, lay at 13.2 µM.

As for `C=C(C)[C@@H]1CC[C@]2(C(=O)N3CCC(CCCC(=O)O)CC3)CC[C@]3(C)[C@H](CC[C@@H]4[C@@]5(C)CC[C@H](O)C(C)(C)[C@@H]5CC[C@]43C)[C@@H]12` [Compound 38, N-[3β-Hydroxy-lup-20(29)-en-28-oyl]-4-piperidine butyric acid], the melting point fell in the range of 145 to 146 °C. Further, the “Persentage of Remaining Parent Compounds (X ± SD) %” value in [9] (incubation time 0 min) is reported as 100.0%. Further, the “Persentage of Remaining Parent Compounds (X ± SD) %” value in [9] (incubation time 5 min) came to 101.7 ± 4.7%. In addition, the “Persentage of Remaining Parent Compounds (X ± SD) %” value in data set [9] (incubation time 15 min) was determined as 97.6 ± 6.2%. The “Persentage of Remaining Parent Compounds (X ± SD) %” value in data set [9] (incubation time 30 min) is recorded as 81.4 ± 8.6%. Further, in data set [9] (incubation time 60 min), the “Persentage of Remaining Parent Compounds (X ± SD) %” value was determined as 62.7 ± 4.3%. Also, the “Persentage of Remaining Parent Compounds (X ± SD) %” value in data set [9] (incubation time 120 min) is 53.8 ± 3.8%. In addition, the CC50 with mock-infected MT-2 cell [4] came out at 41 µM. This molecule came in with an EC50 with HIV-1IIIB (setting [11]) of 21.7 µM.

These data come from patent US20120101098A1, “3,28-DISUBSTITUTED BETULINIC ACID DERIVATIVES AS ANTI-HIV AGENTS” (priority 2009, published 2012).
